Patent US12235275B2, “Fluorescent substrates for poly(ADP-ribosyl) hydrolases” (The Board of Trustees of the University of Illinois, priority 2018, dated 2025)

Legend:
PARG [1] = target: T1, PARG (Homo sapiens, UniProt Q86W56); test: In vitro inhibition of PARG; format: biochemical; design: H. sapiens full length PARG; trigger factor (TF) fusion of the pColdTF vector; made in house; host or cells: Rosetta2 (DE3) E. coli; conditions: dose-response, FIG. 4C
ARH3 [2] = target: T2, ARH3 (Homo sapiens, UniProt Q9NX46); test: In vitro inhibition of purified ARH3; format: biochemical; design: H. sapiens full length ARH3; His6 (N); made in house; host or cells: Rosetta2 (DE3) E. coli; conditions: mixture of anomers
T2 sequence (Q9NX46 1-363): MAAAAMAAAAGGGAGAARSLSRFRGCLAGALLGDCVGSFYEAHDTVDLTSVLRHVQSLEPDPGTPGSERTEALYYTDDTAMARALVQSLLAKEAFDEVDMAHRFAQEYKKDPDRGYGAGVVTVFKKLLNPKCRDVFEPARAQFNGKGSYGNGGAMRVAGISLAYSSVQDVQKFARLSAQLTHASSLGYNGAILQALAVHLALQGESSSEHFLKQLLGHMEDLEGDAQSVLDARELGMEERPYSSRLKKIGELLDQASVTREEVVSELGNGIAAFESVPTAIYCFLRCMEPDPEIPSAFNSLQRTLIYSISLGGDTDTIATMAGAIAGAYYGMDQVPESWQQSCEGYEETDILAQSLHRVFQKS

[3] = target: T3, H. sapiens full length ARH3 (Homo sapiens, UniProt Q9NX46); test: In vitro enzyme kinetics of substrate hydrolysis
T3 sequence (Q9NX46 1-363): T2 sequence (Q9NX46 1-363)

[4] = leaving groups pNP and TFMU; cited from earlier work
T. thermophila PARG = target: T4, T. thermophila PARG (Tetrahymena thermophila, UniProt I6L8L7); format: biochemical; conditions: ttPARG
T4 construct: made in house; host or cells: Rosetta2 (DE3) E. coli
T4 sequence (I6L8L7 1-457): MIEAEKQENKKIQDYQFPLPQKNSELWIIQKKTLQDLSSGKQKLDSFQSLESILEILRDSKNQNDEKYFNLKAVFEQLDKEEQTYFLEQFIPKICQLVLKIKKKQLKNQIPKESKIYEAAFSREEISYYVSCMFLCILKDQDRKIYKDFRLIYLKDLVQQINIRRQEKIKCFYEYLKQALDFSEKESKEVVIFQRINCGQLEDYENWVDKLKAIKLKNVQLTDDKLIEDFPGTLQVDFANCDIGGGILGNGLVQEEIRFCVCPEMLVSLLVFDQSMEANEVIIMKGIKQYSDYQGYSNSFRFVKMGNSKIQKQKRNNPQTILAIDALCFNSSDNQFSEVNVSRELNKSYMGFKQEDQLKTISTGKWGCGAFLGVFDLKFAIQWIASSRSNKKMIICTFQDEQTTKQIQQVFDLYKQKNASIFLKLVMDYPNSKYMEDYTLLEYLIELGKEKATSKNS

ARH3 [5] = target: T2, ARH3; test: Cell lysate ARH3 activity assay (survey of cell lines, TFMU-IDPr hydrolysis); format: biochemical; design: endogenous in cells; conditions: 200 μM TFMU-IDPr
Experimental: (§1) Cells were cultured in T75 flasks in appropriate medium. Cells were trypsinized, and scrapped (if necessary), and counted. 1×10^6 cells were harvested and washed with cold PBS 2×. Cell pellet was lysed by addition of activity lysis buffer (150 μL) and incubated on ice for 30 min. Lysate was clarified by centrifugation at 14,300×g at 4° C. for 10 min. Supernatant was transferred to chilled, empty 500 μL tube. Total protein content of lysate was evaluated by BCA assay. […] Reaction progress was monitored by fluorescent plate reader (ex 385 nm, cutoff 495, em 502 nm, 6 reads/well, high gain).

PARG [6] = target: T1, PARG; test: Substrate hydrolysis in U2OS cell lysate in presence of PARG inhibitor PDD00017273; format: biochemical; design: endogenous in cells; host or cells: U2OS (parental and ARH3 knockout) lysate
Experimental: (§2) The ability of TFMU-IDPr to selectively report on ARH3 activity within the cellular milieu would be an important application of these probes. […] First, the hydrolysis of TFMU-IDPr was evaluated in cell lysate from a ARH3 knockout isogenic cell line pair derived from U2OS cells. […] Second, substrate processing was evaluated in the presence of the selective PARG inhibitor PDD00017273. […] Taken together, these experiments indicate that TFMU-IDPr is selectively cleaved by ARH3 in cell lysate, and TFMU-ADPr is cleaved only by ARH3 and PARG.
(§3) Cells were cultured in T75 flasks in appropriate medium. Cells were trypsinized, and scrapped (if necessary), and counted. 1×10^6 cells were harvested and washed with cold PBS 2×. Cell pellet was lysed by addition of activity lysis buffer (150 μL) and incubated on ice for 30 min. Lysate was clarified by centrifugation at 14,300×g at 4° C. for 10 min. Supernatant was transferred to chilled, empty 500 μL tube. Total protein content of lysate was evaluated by BCA assay. ARH3 expression level was determined by western blotting analysis. 5 μL lysate was added to well of 384-well black plate. 45 μL TFMU-IDPr (200 μM final) in reaction buffer was added to well. Reaction progress was monitored by fluorescent plate reader (ex 385 nm, cutoff 495, em 502 nm, 6 reads/well, high gain).

[7] = target: T5, H. sapiens full length PARG (Homo sapiens, UniProt Q86W56); test: In vitro enzyme kinetics of substrate hydrolysis; format: biochemical; conditions: hPARG
T5 construct: H. sapiens full length PARG; trigger factor (TF) fusion of the pColdTF vector; made in house; host or cells: Rosetta2 (DE3) E. coli
T5 sequence (Q86W56 whole entry, the tested form may be a part): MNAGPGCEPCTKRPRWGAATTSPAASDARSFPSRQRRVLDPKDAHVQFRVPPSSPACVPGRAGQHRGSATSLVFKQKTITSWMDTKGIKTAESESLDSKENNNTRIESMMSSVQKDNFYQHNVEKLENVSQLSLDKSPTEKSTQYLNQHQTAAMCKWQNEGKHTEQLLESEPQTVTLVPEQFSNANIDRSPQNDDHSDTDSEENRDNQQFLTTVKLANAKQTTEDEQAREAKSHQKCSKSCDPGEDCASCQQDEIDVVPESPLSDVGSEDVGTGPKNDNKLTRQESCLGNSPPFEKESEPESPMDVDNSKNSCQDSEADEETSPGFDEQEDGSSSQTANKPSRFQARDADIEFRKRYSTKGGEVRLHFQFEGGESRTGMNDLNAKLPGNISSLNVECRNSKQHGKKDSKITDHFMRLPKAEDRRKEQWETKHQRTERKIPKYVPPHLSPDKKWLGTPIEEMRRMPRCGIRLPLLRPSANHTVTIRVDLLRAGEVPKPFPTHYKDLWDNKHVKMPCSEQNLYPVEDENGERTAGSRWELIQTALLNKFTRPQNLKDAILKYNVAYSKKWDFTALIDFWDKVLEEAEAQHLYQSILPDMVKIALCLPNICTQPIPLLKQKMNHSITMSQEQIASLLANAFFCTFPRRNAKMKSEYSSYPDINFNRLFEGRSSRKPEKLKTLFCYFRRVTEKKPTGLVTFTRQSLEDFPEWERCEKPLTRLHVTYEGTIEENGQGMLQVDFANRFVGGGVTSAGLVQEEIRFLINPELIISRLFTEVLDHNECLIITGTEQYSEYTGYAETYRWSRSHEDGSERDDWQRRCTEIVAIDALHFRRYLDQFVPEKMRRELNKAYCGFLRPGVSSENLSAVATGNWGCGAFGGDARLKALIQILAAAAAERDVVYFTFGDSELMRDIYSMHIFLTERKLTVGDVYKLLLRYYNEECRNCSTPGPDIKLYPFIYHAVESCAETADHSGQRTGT

ARH3 [8] = test: Substrate hydrolysis in lysate of ARH3 knockout U2OS cells; format: biochemical; conditions: U2OS cell lysate, 200 μM substrate
Experimental: as §2, §3

ARH3 [9] = test: Cell lysate ARH3 activity assay (survey of cell lines, TFMU-IDPr hydrolysis); format: biochemical; conditions: MEF cell lysate, 200 μM TFMU-IDPr
Experimental: as §1

[10] = substrate: O=c1cc(C(F)(F)F)c2ccc(O[C@H]3O[C@H](COP(=O)(O)OP(=O)(O)OC[C@H]4O[C@@H](n5cnc6c(=O)[nH]cnc65)[C@H](O)[C@@H]4O)[C@@H](O)[C@H]3O)cc2o1; test: purified protein, by the assay type; conditions: other: hARH3
[11] = substrate: O=c1[nH]cnc2c1ncn2[C@@H]1OC(COP(=O)(O)OP(=O)(O)OCC2OC(Oc3ccc([N+](=O)[O-])cc3)[C@H](O)[C@@H]2O)[C@@H](O)[C@H]1O; test: purified protein, by the assay type; conditions: other: hARH3

T1 sequence (Q86W56 whole entry, the tested form may be a part): as above

N=C(NCCCC(N)C(=O)O)NC1OC(COP(=O)(O)OP(=O)(O)OCC2OC(n3cnc4c(N)ncnc43)C(O)C2O)C(O)C1O (stereo not shown) [ADPr-Arg, ADP-ribosyl arginine]
inhibition of PARG (PARG [1]): markedly reduced activity against PARG | Ki (ARH3 [2]): 18 ± 2 nM

Nc1ncnc2c1ncn2[C@@H]1O[C@H](COP(=O)(O)OP(=O)(O)OC[C@H]2NC[C@H](O)[C@@H]2O)[C@@H](O)[C@H]1O [ADP-HPD]
inhibition of PARG (PARG [1]): inhibits both PARG and ARH3

Nc1ncnc2c1ncn2[C@@H]1O[C@H](COP(=O)(O)OP(=O)(O)OC[C@H]2O[C@@H](Oc3ccc([N+](=O)[O-])cc3)[C@H](O)[C@@H]2O)[C@@H](O)[C@H]1O [pNP-ADPr]
Km ([3]; hARH3): 3.2 ± 0.6 µM | Vmax ([3]; hARH3): 1.7 ± 0.1 µmol/min/mg | stereoselectivity of hydrolysis, α versus β anomer ([3]; hARH3, FIG. 5D): selectively hydrolyzed the α anomer of pNP-ADPr over the β anomer | pKa of the leaving group [4]: 7.15 | Km (T. thermophila PARG): 210 ± 10 µM | Vmax (T. thermophila PARG): 16.9 ± 0.5 µmol/min/mg | stereoselectivity of hydrolysis, α versus β anomer (T. thermophila PARG; FIG. 5C): selectively hydrolyzed the α anomer of pNP-ADPr over the β anomer

O=c1cc(C(F)(F)F)c2ccc(O[C@H]3O[C@H](COP(=O)(O)OP(=O)(O)OC[C@H]4O[C@@H](n5cnc6c(=O)[nH]cnc65)[C@H](O)[C@@H]4O)[C@@H](O)[C@H]3O)cc2o1 [TFMU-IDPr]
ARH3 Activity (ARH3 [5]; A549 cell lysate): 67 ± 23 milli-units/min/μg | ARH3 Activity (ARH3 [5]; D54 cell lysate): 147 ± 34 milli-units/min/μg | ARH3 Activity (ARH3 [5]; Daudi cell lysate): 27 ± 35 milli-units/min/μg | ARH3 Activity (ARH3 [5]; HCC38 cell lysate): 100 ± 19 milli-units/min/μg | ARH3 Activity (ARH3 [5]; HCC1937 cell lysate): 76 ± 4 milli-units/min/μg | ARH3 Activity (ARH3 [5]; HCT-116 cell lysate): 173 ± 17 milli-units/min/μg | ARH3 Activity (ARH3 [5]; HEK cell lysate): 192 ± 20 milli-units/min/μg | ARH3 Activity (ARH3 [5]; HFF-1 cell lysate): 105 ± 20 milli-units/min/μg | ARH3 Activity (ARH3 [5]; HeLa cell lysate): 159 ± 18 milli-units/min/μg | ARH3 Activity (ARH3 [5]; HepG2 cell lysate): 215 ± 19 milli-units/min/μg | ARH3 Activity (ARH3 [5]; Hs578t cell lysate): 170 ± 34 milli-units/min/μg | ARH3 Activity (ARH3 [5]; Jurkat cell lysate): 36 ± 7 milli-units/min/μg | ARH3 Activity (ARH3 [5]; MCF 7 cell lysate): 92 ± 40 milli-units/min/μg | ARH3 Activity (ARH3 [5]; MCF10A cell lysate (grown with cholera toxin)): −5 ± 12 milli-units/min/μg | ARH3 Activity (ARH3 [5]; MIA PaCa-2 cell lysate): 157 ± 25 milli-units/min/μg | ARH3 Activity (ARH3 [5]; SK-MEL-5 cell lysate): 87 ± 13 milli-units/min/μg | ARH3 Activity (ARH3 [5]; T98G cell lysate): 139 ± 7 milli-units/min/μg | ARH3 Activity (ARH3 [5]; U87 cell lysate): 290 ± 52 milli-units/min/μg | ARH3 Activity (ARH3 [5]; U937 cell lysate): 137 ± 34 milli-units/min/μg | selectivity for processing by ARH3 over PARG ([3]; human ARH3 over human PARG, FIG. 2C): confirmed | substrate hydrolysis in presence of PARG inhibitor PDD00017273 (PARG [6]; U2OS cell lysate, 200 μM TFMU-IDPr): unaffected | Km [7]: > 1500 µM | Km (T. thermophila PARG): > 1500 µM | effect of ARH3 knockout on substrate hydrolysis (ARH3 [8]): near complete loss | ARH3 Activity (ARH3 [9]): 153 ± 38 milli-units/min/μg

PDD00017273 [reference compound]
inhibition of TFMU-ADPr hydrolysis (PARG [6]; ARH3−/− U2OS cell lysate, 200 μM TFMU-ADPr): completely abolished

Nc1ncnc2c1ncn2[C@@H]1O[C@H](COP(=O)(O)OP(=O)(O)OC[C@H]2O[C@H](Oc3ccc4c(C(F)(F)F)cc(=O)oc4c3)[C@H](O)[C@@H]2O)[C@@H](O)[C@H]1O [TFMU-ADPr]
Vmax ([3]; hARH3): 1.61 ± 0.02 µmol/min/mg | Vmax [7]: 0.84 ± 0.05 µmol/min/mg | pKa of the leaving group [4]: 7.26 | Vmax (T. thermophila PARG): 28.6 ± 0.6 µmol/min/mg | effect of ARH3 knockout on substrate hydrolysis (ARH3 [8]): only partially decreased

O=c1[nH]cnc2c1ncn2[C@@H]1OC(COP(=O)(O)OP(=O)(O)OCC2OC(Oc3ccc([N+](=O)[O-])cc3)[C@H](O)[C@@H]2O)[C@@H](O)[C@H]1O (stereo partly shown) [pNP-IDPr]
Km (T. thermophila PARG): > 1500 µM

B1: H. sapiens full length ARH3 (Homo sapiens) (protein)
chain: T2 sequence (Q9NX46 1-363)
Km [10]: 312 ± 30 µM | Vmax [10]: 1.79 µmol/min/mg | Km [11]: 410 ± 20 µM | Vmax [11]: 5.2 µmol/min/mg
